Data from ChEMBL document CHEMBL1201862, “PubChem BioAssay data set” (2004).
Calls of active or inactive are those of the source.

Legend:
Bcl-2-like protein 10 = target: T1, Bcl-2-like protein 10 (Homo sapiens, UniProt Q9HD36); experiment: Biochemical TR3 FP assay of Bcl-B inhibitor potency, EC50 (AID 1243); type: functional
T1 sequence (Q9HD36 whole entry): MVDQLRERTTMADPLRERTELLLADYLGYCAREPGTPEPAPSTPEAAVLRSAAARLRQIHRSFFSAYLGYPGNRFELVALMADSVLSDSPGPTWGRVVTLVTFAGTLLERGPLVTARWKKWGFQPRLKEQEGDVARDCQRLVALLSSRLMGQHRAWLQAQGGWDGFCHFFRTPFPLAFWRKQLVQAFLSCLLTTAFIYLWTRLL

HEK293 = experiment: Fluorescence-based counterscreen for potentiators or agonists of NPY-Y2: cell-based high-throughput dose response assay to identify inhibitors of cyclic nucleotide gated ion channel (CNGC) activity. In this assay, the parental HEK293 cell line transfected with a cyclic-nucleotide gated ion channel (CNGC)-based cAMP sensor is used to measure inhibition of isoproterenol-induced CNGC activity by test compound.; type: functional; details: Homo sapiens
[1] = target: Neuropeptide Y receptor type 1 (Homo sapiens, UniProt P25929); experiment: Fluorescence-based counterscreen for agonists of NPY-Y2: cell-based high-throughput dose response assay for agonists of NPY-Y1.; type: functional
Chain of Neuropeptide Y receptor type 1 (P25929 whole entry): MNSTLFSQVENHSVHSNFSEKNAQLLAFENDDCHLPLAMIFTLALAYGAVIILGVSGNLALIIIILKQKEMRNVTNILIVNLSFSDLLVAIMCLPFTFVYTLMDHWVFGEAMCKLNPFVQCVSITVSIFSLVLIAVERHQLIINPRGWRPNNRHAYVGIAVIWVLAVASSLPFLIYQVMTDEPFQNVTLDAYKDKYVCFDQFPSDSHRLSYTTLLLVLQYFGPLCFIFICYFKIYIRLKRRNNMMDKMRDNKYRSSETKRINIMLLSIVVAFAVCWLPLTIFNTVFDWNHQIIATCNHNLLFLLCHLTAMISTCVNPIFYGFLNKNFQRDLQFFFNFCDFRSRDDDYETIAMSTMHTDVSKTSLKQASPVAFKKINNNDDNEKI

[2] = target: Neuropeptide Y receptor type 2 (Homo sapiens, UniProt P49146); experiment: Fluorescence-based cell-based high-throughput dose response assay for agonists of NPY-Y2. [Related pubchem assays: 1703 (Screening assay (CNGC inhibitors).), 1359 (Screening assay (NPY-Y2 potentiators or agonists).), 1304 (Screening assay (NPY-Y1 potentiators or agonists).), 1710 (Screening assay (NPY-Y2 agonists).), 1791 (Summary AID.)]; type: functional
Chain of Neuropeptide Y receptor type 2 (P49146 whole entry): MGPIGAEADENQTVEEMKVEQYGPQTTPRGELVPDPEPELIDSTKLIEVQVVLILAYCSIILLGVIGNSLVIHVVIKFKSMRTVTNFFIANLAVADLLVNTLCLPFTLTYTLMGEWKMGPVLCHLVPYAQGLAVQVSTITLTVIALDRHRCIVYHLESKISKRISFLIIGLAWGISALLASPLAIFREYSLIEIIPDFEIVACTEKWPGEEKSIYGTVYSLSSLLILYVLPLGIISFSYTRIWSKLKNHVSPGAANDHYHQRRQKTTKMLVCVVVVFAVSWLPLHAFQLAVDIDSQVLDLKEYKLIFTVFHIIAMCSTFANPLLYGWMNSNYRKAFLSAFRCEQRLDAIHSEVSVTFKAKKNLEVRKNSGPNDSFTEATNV

Galanin receptor type 2 = target: T2, Galanin receptor type 2 (Homo sapiens, UniProt O43603); experiment: Dose Response cell-based high-throughput screening assay to identify agonists of galanin receptor 2 (GALR2). [Related pubchem assays: 864 ]; type: functional
T2 sequence (O43603 whole entry): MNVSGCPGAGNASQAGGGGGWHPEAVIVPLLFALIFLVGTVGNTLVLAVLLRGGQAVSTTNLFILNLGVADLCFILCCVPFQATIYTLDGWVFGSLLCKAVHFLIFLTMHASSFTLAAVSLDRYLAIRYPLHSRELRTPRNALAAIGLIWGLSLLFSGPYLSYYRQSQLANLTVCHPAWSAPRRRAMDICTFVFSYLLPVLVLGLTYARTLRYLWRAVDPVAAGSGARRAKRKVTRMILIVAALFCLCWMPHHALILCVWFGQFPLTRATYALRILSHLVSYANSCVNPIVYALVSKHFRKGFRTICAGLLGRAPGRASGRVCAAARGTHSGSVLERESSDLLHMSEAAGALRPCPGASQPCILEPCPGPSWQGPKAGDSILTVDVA

Streptococcus [3] = experiment: Group A Streptococcus viability loss, dose response, counter-screen for streptokinase expression inhibitor project, luminescence, BacTiterGlo (AID 1915); type: functional, organism-based;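 further: potency for reduction of bacterial viability or growth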
[4] = control 3'UTR Renilla luciferase suppression, dose response, counter-screen for Shn3 inhibitor project, cell-based, Clone20-Shn3RL, cherry-picked (AID 624133); type: functional
INS1 = experiment: beta cell apoptosis inhibitors, cytokine rescue, dose response, luminescence, retest (AID 449756); type: functional, cell-based; details: Rattus norvegicus;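 further: cell death triggered by IL-1 beta plus TNF-alpha plus IFN-gamma mixture; protective hits raise ATP signal compared with cytokine alone wells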
[5] = HepG2 cell cytotoxicity, dose response, cytotoxicity control for Shn3 inhibitor project, CellTiter-Glo, cherry-picked (AID 624134); type: functional, cell-based
[6] = cytotoxicity in MIN6 insulinoma cells, dose response, cytotoxicity control, cell-based, mouse insulinoma (AID 2122); type: functional;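 further: confirmatory high-throughput counterscreen run to flag cytotoxic compounds; mouse MIN-6 beta cells carrying an insulin promoter eGFP reporter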
[7] = Shn3 3'UTR reporter inhibitors, dose response, cell-based, Clone20 osteoblasts, firefly luciferase, cherry-picked (AID 624132); type: functional;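 further: firefly luciferase luminescence from reporter carrying the Shn3 3'UTR in osteoblasts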
[8] = tested on: Streptococcus sp. 'group A'; experiment: growth inhibition of control SK(-) GAS strain, dose response, counter-screen for streptokinase expression inhibitor project, luminescence, kanamycin, BacTiterGlo, confirmation (AID 1900); type: functional, organism-based
[9] = insulin promoter down-regulators in MIN6 cells, imaging, high-content screening, mouse beta cells (AID 1628); type: functional
[10] = inhibitors of intracellular T. cruzi replication, confirmation, NIH3T3 host cells, beta-gal luminescence (AID 2044); type: functional, cell-based;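 further: intracellular parasites grown in NIH/3T3 mouse fibroblasts as host cells; luminescent beta-galactosidase reporter signal from transgenic T. cruzi replicating inside host cells; inhibitors lower the luminescence signal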
[11] = cytotoxicity toward NIH3T3 fibroblasts, dose response, counter-screen, cell-based, ATP luminescence, mouse fibroblasts (AID 2010); type: functional;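 further: cells exposed to compound for about 90 hours before reading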
[12] = target: Inward rectifier potassium channel 2 (Mus musculus, UniProt P35561); experiment: Manual electrophysiological patch clamp assay for SAR compounds that inhibit/block inward-rectifying potassium ion channel Kir2.1. [Related pubchem assays: 1843 (Summary assay for Kir2.1 inhibitor assays.), 1672 (Primary HTS of 305616 compounds where 2592 were identified as active.)]; type: functional
Chain of Inward rectifier potassium channel 2 (P35561 whole entry): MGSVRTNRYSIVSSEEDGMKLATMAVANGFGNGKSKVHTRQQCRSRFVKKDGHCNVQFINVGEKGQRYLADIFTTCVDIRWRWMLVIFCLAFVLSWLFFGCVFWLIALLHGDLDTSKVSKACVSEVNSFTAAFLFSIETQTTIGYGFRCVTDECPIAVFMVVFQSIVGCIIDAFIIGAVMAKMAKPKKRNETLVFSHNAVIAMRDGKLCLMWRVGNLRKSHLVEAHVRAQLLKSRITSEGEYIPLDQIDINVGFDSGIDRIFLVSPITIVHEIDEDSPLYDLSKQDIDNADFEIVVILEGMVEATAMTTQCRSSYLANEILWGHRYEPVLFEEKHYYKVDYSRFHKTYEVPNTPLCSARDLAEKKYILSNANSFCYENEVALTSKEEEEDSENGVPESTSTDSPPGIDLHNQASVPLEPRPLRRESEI

[13] = enhancers of respiration in Yfh1-depleted yeast, dose response, Friedreich's ataxia, plus single-dose screen (AID 1465); type: functional;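 further: yeast depleted of Yfh1p frataxin homolog grown on glycerol needing respiration; WST-1 tetrazolium dye reduction as measure of cellular dehydrogenase metabolic activity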
Streptococcus [14] = experiment: Streptococcus pyogenes growth inhibition counter-screen, dose response, counter-screen for streptokinase expression inhibitor project, luminescence, BacTiter-Glo, strain UMAA2166 (AID 2477); type: functional, organism-based
Streptokinase A = target: T3, Streptokinase A (Streptococcus pyogenes serotype M1, UniProt P10520); experiment: Absorbance Microorganism-Based Dose Response Follow up to Identify Inhibitors of Streptokinase Expression. [Related pubchem assays: 1677 (Project Summary), 1915, 1914, 1902 (Retest at Dose), 1900 (Counter Screen), 1662 (Primary HTS)]; type: functional, Streptococcus pyogenes M1 GAS
T3 sequence (P10520 whole entry): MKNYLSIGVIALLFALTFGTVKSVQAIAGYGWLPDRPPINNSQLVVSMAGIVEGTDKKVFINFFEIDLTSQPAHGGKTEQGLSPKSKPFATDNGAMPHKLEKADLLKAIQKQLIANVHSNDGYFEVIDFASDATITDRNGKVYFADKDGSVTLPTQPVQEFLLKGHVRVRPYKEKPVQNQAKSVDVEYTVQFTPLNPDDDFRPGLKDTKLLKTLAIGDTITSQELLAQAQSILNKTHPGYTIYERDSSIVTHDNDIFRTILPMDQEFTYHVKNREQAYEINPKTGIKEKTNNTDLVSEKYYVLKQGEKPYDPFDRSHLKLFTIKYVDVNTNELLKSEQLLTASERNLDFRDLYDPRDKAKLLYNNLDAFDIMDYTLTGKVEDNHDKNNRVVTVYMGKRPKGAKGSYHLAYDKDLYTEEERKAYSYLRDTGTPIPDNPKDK

## Cc1ccc2oc3cc(NCCCN(C)C)c4c(=O)c5ccccc5c(=O)c4c3[nH]c2c1
Bcl-2-like protein 10
  EC50: 0.67 µM (active)

## Cc1sc2nc(SCc3ccc(C(=O)O)cc3)n(Cc3ccco3)c(=O)c2c1C
HEK293
  EC50: > 35.4 µM (not active)
[1]
  EC50: > 35.4 µM (not active)
[2]
  EC50: > 35.4 µM (not active)

## Cc1cc(C)c2nc(NNC(=O)c3ccc(S(=O)(=O)N4CC(C)CC(C)C4)cc3)sc2c1 (centres undefined)
Galanin receptor type 2
  EC50: > 55.7 µM (not active)
Streptococcus [3]
  EC50: 2.55 µM (active)
[4]
  AC50: 2.1 µM (active)
INS1
  AC50: 1.96 µM (active)
[5]
  AC50: 7.56 µM (active)
[6]
  IC50: 3.68 µM (active)
[7]
  AC50: 2.28 µM (active)
[8]
  EC50: 0.697 µM (active)
[9]
  IC50: 4.16 µM (active)
[10]
  EC50: 1.35 µM (active)
[11]
  EC50: 3.39 µM (active)

## COc1ccc(CNCc2cccc(Cl)c2)cc1
[12]
  IC50: 1.12 µM (active)

## COc1ccc(C2(c3ccc(O)cc3O)CC(c3ccccc3Cl)N=C(S)N2)cc1 (centres undefined)
[13]
  EC50: > 100 µM (active)

## COc1ccc(-c2nc(OC)c3ccccc3n2)cc1
Streptococcus [14]
  EC50: > 500 µM (not active)
Streptokinase A
  EC50: 63.2 µM (active)
